The results in this text go back to patent publication US7605163B2, “Benzoyl-piperazine derivatives” (Hoffmann-La Roche Inc., priority 2003, dated 2009).

The target of the experiment is T1, mGlyT-1b (Mus musculus, UniProt P28571).
T1 construct: host or cells: Flp-in-CHO cells
T1 sequence (P28571 1-651 isoform P28571-2): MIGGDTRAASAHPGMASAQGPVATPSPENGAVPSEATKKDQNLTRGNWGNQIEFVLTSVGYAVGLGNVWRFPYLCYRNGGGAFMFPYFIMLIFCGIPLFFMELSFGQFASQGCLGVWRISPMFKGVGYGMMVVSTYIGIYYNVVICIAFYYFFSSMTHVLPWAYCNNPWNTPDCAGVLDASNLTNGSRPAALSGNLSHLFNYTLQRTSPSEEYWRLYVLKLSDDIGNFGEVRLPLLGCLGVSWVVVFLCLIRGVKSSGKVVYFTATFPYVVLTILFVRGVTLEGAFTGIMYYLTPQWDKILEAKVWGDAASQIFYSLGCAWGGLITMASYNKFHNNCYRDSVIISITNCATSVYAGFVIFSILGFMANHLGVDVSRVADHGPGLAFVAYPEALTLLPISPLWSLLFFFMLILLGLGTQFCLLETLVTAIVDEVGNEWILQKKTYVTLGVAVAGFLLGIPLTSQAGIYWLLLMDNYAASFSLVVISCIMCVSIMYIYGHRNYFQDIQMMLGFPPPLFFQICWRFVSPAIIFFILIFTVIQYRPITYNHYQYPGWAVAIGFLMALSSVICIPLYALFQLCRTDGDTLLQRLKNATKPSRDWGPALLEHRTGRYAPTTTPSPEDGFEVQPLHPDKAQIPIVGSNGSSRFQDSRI
The experiment is described as follows: Glycine Uptake Inhibition Assay (mGlyT-1b). Conditions: [3H]-glycine uptake inhibition at GlyT-1, Flp-in-CHO cells transfected with mGlyT-1b cDNA. The experiment is classed as cell-based. In short, it runs like this:
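Flp-in CHO cells stably expressing mouse GlyT-1b preincubated 20 min at 22 °C with inhibitor in pH 7.4 uptake buffer, then given 60 nM [3H]-glycine plus 25 μM unlabelled glycine. Cell radioactivity counted by scintillation; nonspecific uptake defined with 10 mM glycine; IC50 from concentration range.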
On to `CC(Oc1ccc(S(C)(=O)=O)cc1C(=O)N1CCN(c2ccc(C(F)(F)F)cc2)CC1)C(F)(F)F` (stereo not shown) [compound 301], for which the IC50 (as a rule, the point on the concentration scale where inhibition reaches its midpoint) turned out to be 30 nM. Next, `CC(=O)c1ccc(N2CCN(C(=O)c3cc(S(C)(=O)=O)ccc3OC3CCC3)CC2)c(F)c1` [compound 311]: 45 nM; `CS(=O)(=O)c1ccc(OC2CCC2)c(C(=O)N2CCN(c3ccc(C#N)cc3F)CC2)c1` [compound 313]: 18 nM. On to `CS(=O)(=O)c1ccc(OC2CCC2)c(C(=O)N2CCN(c3ccc(C(F)(F)F)c(F)c3)CC2)c1` [compound 317], for which the 50% inhibitory concentration (IC50) amounted to 41 nM.

On to `CC(C)Oc1ccc(S(C)(=O)=O)cc1C(=O)N1CCN(c2ccc(C(F)(F)F)cc2C#N)CC1` [compound 363], for which the IC50 amounted to 8 nM. As to `CC(=O)c1ccc(N2CCN(C(=O)c3cc(S(C)(=O)=O)ccc3OC(C)C)CC2)cc1F` [compound 367], half-maximal inhibition (IC50) was put at 36 nM. `CC(=O)c1ccc(N2CCN(C(=O)c3cc(S(C)(=O)=O)ccc3OCC3CC3)CC2)cc1F` [compound 369] gave an IC50 of 32 nM. Consider `CC(C)COc1ccc(S(C)(=O)=O)cc1C(=O)N1CCN(c2ccc(S(C)(=O)=O)c(F)c2)CC1` [compound 371], for which it took 41 nM to reach half-maximal inhibition (IC50). This IC50 and that of the molecule before are within 1.5-fold of each other.

As to `CC(=O)c1ccc(N2CCN(C(=O)c3cc(S(C)(=O)=O)ccc3OCC(C)C)CC2)cc1F` [compound 372], the IC50 turned out to be 6 nM. Against the preceding molecule, the IC50 is about 6.8-fold lower. Regarding `CS(=O)(=O)c1ccc(OC2CCCC2)c(C(=O)N2CCN(c3ccc(C(F)(F)F)cc3C#N)CC2)c1` [compound 373], the IC50 worked out at 35 nM. Compared with the last molecule, the IC50 is about 5.8-fold higher. The figure for `CC(C)COc1ccc(S(C)(=O)=O)cc1C(=O)N1CCN(c2ccc(C(F)(F)F)cc2C#N)CC1` [compound 375] is 35 nM; for `CCS(=O)(=O)c1ccc(OC(C)C)c(C(=O)N2CCN(c3ccc(C(F)(F)F)cc3F)CC2)c1` [compound 393] it is 32 nM. Molecule `CC(C)Oc1ccc(S(C)(=O)=O)cc1C(=O)N1CCN(c2ccc(C(F)F)cc2F)CC1` [compound 400] had an IC50 of 23 nM. The figure for `CS(=O)(=O)c1ccc(OC2CCCC2)c(C(=O)N2CCN(c3ccc(C#N)cn3)CC2)c1` [compound 411] is 45 nM.

For the molecule `CS(=O)(=O)c1ccc(OC2CCCC2)c(C(=O)N2CCN(c3ccc(C(F)(F)F)cn3)CC2)c1` [compound 412], the IC50 amounted to 33 nM. The molecule `CS(=O)(=O)c1ccc(OC2CCCC2)c(C(=O)N2CCN(c3ncc(C(F)(F)F)cc3Cl)CC2)c1` [compound 413] registered an IC50 of 30 nM.

In turn, `CC(C)Oc1ccc(S(C)(=O)=O)cc1C(=O)N1CCN(c2ncc(C(F)(F)F)cc2Cl)CC1` [compound 417] returned an IC50 of 46 nM. With `CS(=O)(=O)c1ccc(OC2CCCC2)c(C(=O)N2CCN(c3ccc(C(F)(F)F)nc3)CC2)c1` [compound 430], inhibition was half-maximal at 37 nM (IC50).

Take `CC(C)Oc1ccc(S(C)(=O)=O)cc1C(=O)N1CCN(c2ncc(C(F)(F)F)cc2F)CC1` [compound 437]: the IC50 was determined as 26 nM. Turning to `CS(=O)(=O)c1ccc(OC2CCCC2)c(C(=O)N2CCN(c3ncc(C(F)(F)F)cc3F)CC2)c1` [compound 439], half-maximal inhibition (IC50) was put at 21 nM. In turn, `CC(C)Oc1ccc(S(C)(=O)=O)cc1C(=O)N1CCN(c2ccc(C=O)cc2F)CC1` [compound 461] showed an IC50 of 46 nM. Turning to `CNS(=O)(=O)c1ccc(OCC(C)C)c(C(=O)N2CCN(c3ccc(C#N)c(F)c3)CC2)c1` [compound 475], it took 40 nM to reach half-maximal inhibition (IC50). `CNS(=O)(=O)c1ccc(OCC2CCC2)c(C(=O)N2CCN(c3ccc(C#N)c(F)c3)CC2)c1` [compound 481] gave a half-maximal inhibitory concentration (IC50) of 30 nM. As to `CNS(=O)(=O)c1ccc(OCC(C)C)c(C(=O)N2CCN(c3ccc(C#N)cc3)CC2)c1` [compound 488], the IC50 was determined as 39 nM. Next, `CNS(=O)(=O)c1ccc(OC2CCCC2)c(C(=O)N2CCN(c3ccc(C#N)cc3)CC2)c1` [compound 491]: 37 nM. As to `CNS(=O)(=O)c1ccc(OCC2CCC2)c(C(=O)N2CCN(c3ccc(C#N)cc3)CC2)c1` [compound 494], 30 nM corresponded to half-maximal inhibition (IC50). For `CNS(=O)(=O)c1ccc(OCC(C)C)c(C(=O)N2CCN(c3ccc(C#N)cc3F)CC2)c1` [compound 504], the IC50 was 25 nM. The IC50 values of the last two molecules are within 1.5-fold of each other. `CNS(=O)(=O)c1ccc(OCC(C)(C)C)c(C(=O)N2CCN(c3ccc(C#N)cc3F)CC2)c1` [compound 505] displayed an IC50 of 24 nM. For `CNS(=O)(=O)c1ccc(OC(C)C)c(C(=O)N2CCN(c3ccc(C#N)cc3F)CC2)c1` [compound 506], the IC50 turned out to be 46 nM. With `CNS(=O)(=O)c1ccc(OC2CCCC2)c(C(=O)N2CCN(c3ccc(C#N)cc3F)CC2)c1` [compound 507], the IC50 was 31 nM. `CNS(=O)(=O)c1ccc(OCC2CC2)c(C(=O)N2CCN(c3ccc(C#N)cc3F)CC2)c1` [compound 509] displayed an IC50 of 30 nM. The figure for `CNS(=O)(=O)c1ccc(OCC2CCC2)c(C(=O)N2CCN(c3ccc(C#N)cc3F)CC2)c1` [compound 510] is 15 nM; for `CNS(=O)(=O)c1ccc(OCC(C)C)c(C(=O)N2CCN(c3ccc(C(C)=O)cc3F)CC2)c1` [compound 514] it is 45 nM. For `CNS(=O)(=O)c1ccc(OCC(C)(C)C)c(C(=O)N2CCN(c3ccc(C(C)=O)cc3F)CC2)c1` [compound 515], the IC50 was determined as 40 nM. Molecule `CNS(=O)(=O)c1ccc(OC2CCCC2)c(C(=O)N2CCN(c3ccc(C(C)=O)cc3F)CC2)c1` [compound 517] had an IC50 of 35 nM. `CNS(=O)(=O)c1ccc(OCC2CC2)c(C(=O)N2CCN(c3ccc(C(C)=O)cc3F)CC2)c1` [compound 519] returned an IC50 of 35 nM. On to `CNS(=O)(=O)c1ccc(OCC(C)C)c(C(=O)N2CCN(c3ccc(C(F)(F)F)cc3)CC2)c1` [compound 524], for which half-maximal inhibition (IC50) was put at 12 nM. As for `CNS(=O)(=O)c1ccc(OCC(C)(C)C)c(C(=O)N2CCN(c3ccc(C(F)(F)F)cc3)CC2)c1` [compound 525], the IC50 came out at 21 nM. This IC50 is about 1.8-fold higher than that of the molecule before. The molecule `CNS(=O)(=O)c1ccc(OC(C)C)c(C(=O)N2CCN(c3ccc(C(F)(F)F)cc3)CC2)c1` [compound 526] gave an IC50 of 9 nM. Against the preceding molecule, the IC50 is about 2.3-fold lower. The molecule `CNS(=O)(=O)c1ccc(OC2CCCC2)c(C(=O)N2CCN(c3ccc(C(F)(F)F)cc3)CC2)c1` [compound 527] yielded an IC50 of 6 nM. `CNS(=O)(=O)c1ccc(OC2CCC2)c(C(=O)N2CCN(c3ccc(C(F)(F)F)cc3)CC2)c1` [compound 528] returned an IC50 of 15 nM. Compared with the last molecule, the IC50 is about 2.5-fold higher.

As for `CNS(=O)(=O)c1ccc(OCC2CC2)c(C(=O)N2CCN(c3ccc(C(F)(F)F)cc3)CC2)c1` [compound 529], the IC50 was determined as 13 nM. Regarding `CNS(=O)(=O)c1ccc(OCC2CCC2)c(C(=O)N2CCN(c3ccc(C(F)(F)F)cc3)CC2)c1` [compound 530], the IC50 was 5.7 nM. Turning to `CNS(=O)(=O)c1ccc(OCCC(F)(F)F)c(C(=O)N2CCN(c3ccc(C(F)(F)F)cc3)CC2)c1` [compound 531], half-maximal inhibition (IC50) required 28 nM. In turn, `CNS(=O)(=O)c1ccc(OCC(F)(F)F)c(C(=O)N2CCN(c3ccc(C#N)cc3F)CC2)c1` [compound 534] returned an IC50 of 49 nM. As for `CNS(=O)(=O)c1ccc(OCC(F)(F)F)c(C(=O)N2CCN(c3ccc(C(F)(F)F)cc3)CC2)c1` [compound 537], the IC50 was 30 nM. `N#Cc1ccc(N2CCN(C(=O)c3cc(S(=O)(=O)C4CC4)ccc3OC3CCCC3)CC2)c(F)c1` [compound 546] had an IC50 of 35 nM. Take `COCCS(=O)(=O)c1ccc(N2CCN(C(=O)c3cc(S(C)(=O)=O)ccc3OC(C)C)CC2)c(F)c1` [compound 561]: it took 38 nM to reach half-maximal inhibition (IC50). The IC50 values of the last two molecules are within 1.5-fold of each other. Regarding `CCS(=O)(=O)c1ccc(N2CCN(C(=O)c3cc(S(C)(=O)=O)ccc3OCC3CC3)CC2)c(F)c1` [compound 562], the IC50 was 44 nM. As for `CCS(=O)(=O)c1ccc(N2CCN(C(=O)c3cc(S(C)(=O)=O)ccc3OC3CCCC3)CC2)c(F)c1` [compound 563], the IC50 was 43 nM. `CCS(=O)(=O)c1ccc(N2CCN(C(=O)c3cc(S(C)(=O)=O)ccc3OC3CCCCC3)CC2)c(F)c1` [compound 564] came in with an IC50 of 41 nM.

In turn, `CCS(=O)(=O)c1ccc(N2CCN(C(=O)c3cc(S(C)(=O)=O)ccc3OCC(C)C)CC2)c(F)c1` [compound 566] gave an IC50 of 30 nM. The molecule `CC(C)Oc1ccc(S(C)(=O)=O)cc1C(=O)N1CCN(c2ccc(S(=O)(=O)C3CCC3)cc2F)CC1` [compound 570] had an IC50 of 46 nM. Consider `CC(C)Oc1ccc(S(C)(=O)=O)cc1C(=O)N1CCN(c2ccc(S(=O)(=O)C3CCCC3)cc2F)CC1` [compound 571], for which it took 50 nM to reach half-maximal inhibition (IC50).

As to `CS(=O)(=O)c1ccc(OC2CCCC2)c(C(=O)N2CCN(c3ccc(S(=O)(=O)C4CC4)cc3F)CC2)c1` [compound 573], the IC50 turned out to be 37 nM. This IC50 and that of the molecule before are within 1.5-fold of each other. Consider `CS(=O)(=O)c1ccc(OC2CCCCC2)c(C(=O)N2CCN(c3ccc(S(=O)(=O)C4CC4)cc3F)CC2)c1` [compound 574], for which the IC50 was found to be 34 nM. The IC50 values of the last two molecules are within 1.5-fold of each other. The figure for `CS(=O)(=O)c1ccc(OC2CCC2)c(C(=O)N2CCN(c3ccc(S(=O)(=O)C4CC4)cc3F)CC2)c1` [compound 576] is 39 nM. On to `CC(C)COc1ccc(S(C)(=O)=O)cc1C(=O)N1CCN(c2ccc(S(=O)(=O)C3CC3)cc2F)CC1` [compound 578], for which the IC50 worked out at 41 nM.
